Consider 5 compounds from article PMC4240912, “Multifaceted interplay between lipophilicity, protein interaction and luminescence parameters of non-intercalative ruthenium(II) polypyridyl complexes controlling cellular imaging and cytotoxic properties” (Journal of Biological Inorganic Chemistry, 2014).

Like-named read-outs stand apart in the source and are kept apart here.

Series [1] relates to 4T1 breast cancer cell line. The series can be described thus: Alamar Blue cell viability, 4T1. Format: cell-based. As to conditions: 4T1, 24 h incubation. How it is done: 4T1 breast cancer cell line was cultured in RPMI-1640 (Gibco Invitrogen) with 10 % fetal bovine serum (FBS, the bovine serum albumin is a major component), 1 % penicillin and streptomycin and 0.2 % fungizone. Cells were routinely cultured at 37 °C in a humidified incubator in 5 % CO2 atmosphere. Cell viability was measured using Alamar Blue assay. Cells were seeded on 96-well plate with density of 10^4 cells per cm^2 and cultured for 24 h in medium with or without 2 % serum. Then cells were incubated with various concentrations of ruthenium compounds for 24 h in the dark. All used ruthenium complexes were freshly diluted in DMSO and then added to the appropriate medium to obtain the applied concentrations. The final DMSO concentration was kept constant at 0.05 % (v/v). Next cells were washed with PBS and incubated in AlamarBlue solution (21 times diluted in PBS) for 3 h. Alamar Blue test is based on the reduction of blue and non-fluorescent subtract (resazurin) to a pink and highly fluorescent product (resorufin) by the alive cells. Extract mechanism of the reduction is still unknown, but it is postulated that reduction occurs by mitochondrial or cytoplasmic enzymes, such as NADH dehydrogenase or diaphorase. It is still not known whether this process occurs intracellularly, at the plasma membrane surface or just in the medium as a chemical reaction. The cell viability was quantified at 605 nm using 560 nm excitation light (VICTOR 3V multilabel plate readers, PerkinElmer). Experiments were performed in triplicates and each experiment was performed at least three times to get the mean values ± standard deviation. The viability was calculated with regard to the untreated cells control. The IC50 values were determined using Hill equation (Origin 9.0): y=y0+y100-y0c^H/IC50^H+c^H

Series [2] deals with FVB mouse lung microvascular endothelial cells (MLuMEC FVB). Nature of the series: Alamar Blue cell viability, MLuMEC. Format: cell-based. As to conditions: 24 h. As for the experimental part:
FVB mouse lung microvascular endothelial cells (MLuMEC FVB) and murine endothelial cells isolated from aorta-gonad-mesonephros (AGM) region of 10.5 dpc embryos (MAgEC 10.5) were cultured in OptiMEM with Glutamax-I (Gibco Invitrogen) supplemented with 2% fetal bovine serum (FBS), 0.4% gentamycin and 0.2% fungizone. […]
10% FBS, 1% peniciline and streptomycin and 0.2% fungizone. Cells were routinely cultured at 37 °C in a humidified incubator in 5% CO2 atmosphere.
Cell viability was measured using Alamar Blue assay. Cells were seeded on 96 wells plate with density of 1 × 10^4 cells per cm2 and cultured for 1 day. Then cells were incubated with various concentrations of compounds in medium with or without 2% FBS for 24 and 48 h under normoxic and hypoxic conditions in the darkness. Next cells were washed with PBS and incubated in Alamar Blue solution for 3 h. The cell viability was quantified at 605 nm using 560 nm excitation light (VICTOR 3V multilabel plate reader PerkinElmer or Tecan Infinite200 Reader). Experiments were performed in triplicates and each experiment was performed at least three times to get the mean values ± standard derivation. The viability was calculated with regard to the untreated cells control. The IC50 values were determined using Hill equation (Origin 9.0). […]

Series [3] can be described thus: Luminescence quantum yield and lifetime in aqueous solution. Format: physicochemical. As for the experimental part:
UV–Vis absorption spectra were recorded on a Perkin Elmer Lambda 35 spectrophotometer. Luminescence measurements were performed on a spectrofluorimeter Perkin Elmer LS55. The spectra were recorded at the room temperature in aqueous solution containing small amount of DMSO (<0.008 % v/v). The emission spectra were recorded between 470 and 860 nm upon excitation at 463 nm. The average of three scans was subjected to smoothing. For determination of the quantum yield of luminescence (Φ), aqueous solutions of [Ru(bpy)3]^2+ with a small amount of DMSO (<0.008 % v/v) were used as standards (Φ = 0.028 [14] and 0.042 [20] for air-equilibrium and deoxygenated conditions, respectively). The spectra were recorded for ruthenium complexes at the concentration less than 0.05 absorbance unit at the excitation wavelength. Values were calculated according to the following equation [21]: Φ=Φref×Aref/A×I/Iref×n^2/nref2, where I is the integrated intensity of luminescence, A is the optical density, and n is the refractive index, ref refers to the values for reference. The mean value from minimum three independent experiments was calculated.
The luminescence lifetime measurements were performed with a single photon counting technique using Fluorolog-3, Horiba Jobin Yvon. The excitation wavelength was set at 464 nm (NanoLed Diodes) and the average lifetime of luminescence was monitored at 621 nm. Luminescence decays were collected with 1,000 counts in the peak. The instrument response functions were measured using a light scattering solution of Ludox (colloidal silica, Sigma-Aldrich). Experiments were conducted at room temperature. The DAS6 software (HORIBA Scientific) was used for deconvolution of the obtained decays and for calculation of the lifetime values. The quality of the fit was judged by the χ ^2 parameter (the goodness of fit evaluation). One-exponential fit was determined to be an optimal description of the obtained results for the ruthenium compounds.

In series [4] the test system is 4T1 cells. Nature of the series: Ruthenium uptake measured by ICP-MS. Format: cell-based. The conditions noted are these: 4T1, [Ru-complex] = 2 µM, 24 h. How it is done: Cells were seeded on a 6-well plate with a density of 3 × 10^5 cells per cm^2. 24 h after the incubation ruthenium complexes were added at 2 µM concentration. Cells were incubated in medium without serum for 24 h. After incubation cells were washed twice with PBS, detached by trypsin (trypsin/EDTA from Gibco) treatment, diluted in PBS and counted. Cells were digested in concentrated nitric acid overnight at room temperature and then diluted with water. The ruthenium content of the sample was determined by the inductively coupled plasma mass spectrometry (ICP-MS). Results were calculated as ruthenium concentration per cell (assuming the average volume of cell was 1.7 pL [31]).

For series [5] the following is noted: aqueous solution, ref [11], cited from earlier work.
The subject of series [6] is 4T1 cells. The series can be described thus: Ruthenium uptake / cell luminescence measured by flow cytometry. Format: cell-based. As to conditions: 4T1, [Ru-complex] = 2 µM, 24 h, medium without or with serum (2 %). How it is done:
4T1 cells were seeded in a 24-well plate with a density of 2 × 10^5 cells per cm^2. 24 h after the seeding Ru(II) compounds were added at 2 µM concentration and incubated for 24 h in medium with or without serum (2 %). Then cells were washed with PBS, detached by trypsin treatment and analyzed by BDLSR cytometer with an excitation wavelength of 488 nm and an emission wavelength of 575 ± 13 nm.
Background: In flow cytometry, cells or beads pass a laser one at a time.

[7] abbreviates: air-equilibrated conditions, excitation 463 nm.

Usually IC50 stands for the point on the concentration scale where inhibition reaches its midpoint. Read a low IC50 as greater potency. On to `Cc1ccnc(-c2cc(C)ccn2)c1.[Ru+2].c1ccc(-c2ccnc3c2ccc2c(-c4ccccc4)ccnc23)cc1.c1ccc(-c2ccnc3c2ccc2c(-c4ccccc4)ccnc23)cc1` [[Ru(dip)2(CH3bpy-CH3)]^2+], for which the IC50 is 9.32 ± 1.37 µM in series [1] (medium with serum (2 %)), 4.9 ± 0.3 µM in series [1] (medium without serum), 8.32 ± 0.06 µM in series [2] (with serum (2%)) and 3.36 ± 0.35 µM in series [2] (without serum). Further, the “τ, luminescence lifetime” value in series [3] (air-equilibrated conditions) was 690 ± 10 ns; in series [3] (deoxygenated conditions) it was 2.23 ± 0.01 µs. In addition, the “φ, quantum yield of luminescence” value in series [3] (setting [7]) worked out at 0.0254 ± 0.0009; in series [3] (deoxygenated conditions) it was 0.0778 ± 0.0016.
As to `Cc1ccnc(-c2cc(C(=O)[O-])ccn2)c1.[Ru+2].c1ccc(-c2ccnc3c2ccc2c(-c4ccccc4)ccnc23)cc1.c1ccc(-c2ccnc3c2ccc2c(-c4ccccc4)ccnc23)cc1` [[Ru(dip)2(CH3bpy-COO)]^+], the IC50 in series [1] (medium with serum (2 %)) stood at 13.9 ± 3 µM; in series [1] (medium without serum), 8.66 ± 1.47 µM; in series [2] (with serum (2%)), 18.1 ± 2.19 µM; in series [2] (without serum), 7.74 ± 1.26 µM. Also, in the series with 4T1 cells [4], the “relative ruthenium accumulation in cells” value is reported as “much smaller accumulation than the rest of the studied complexes”. For the same compound, the “τ, luminescence lifetime” value in series [3] (air-equilibrated conditions) is on record as 530 ± 10 ns; in series [3] (deoxygenated conditions), 1.02 ± 0.01 µs. Moreover, the “φ, quantum yield of luminescence” value in series [3] (setting [7]) is 0.0226 ± 0.0012; in series [3] (deoxygenated conditions), 0.0429 ± 0.0004.
Consider `[Ru+2].c1ccc(-c2ccccn2)nc1.c1ccc(-c2ccnc3c2ccc2c(-c4ccccc4)ccnc23)cc1.c1ccc(-c2ccnc3c2ccc2c(-c4ccccc4)ccnc23)cc1` [[Ru(dip)2(bpy)]^2+], for which the IC50 in series [1] (medium with serum (2 %)) was 13.6 ± 1.75 µM; in series [1] (medium without serum) it was 6.79 ± 1.09 µM; in series [2] (with serum (2%)), 11.7 ± 1.6 µM; in series [2] (without serum), 4.7 ± 0.41 µM. In addition, the figures for the “τ, luminescence lifetime” value in series [3] (air-equilibrated conditions) and in series [3] (deoxygenated conditions) were 760 ± 10 ns and 2.51 ± 0.01 µs, respectively. Moreover, the “φ, quantum yield of luminescence” value in series [3] (setting [7]) is reported as 0.0367 ± 0.0004; in series [3] (deoxygenated conditions), 0.1245 ± 0.0004.
In the case of `O=[N+]([O-])c1nccn1CCCc1ccnc(-c2ccccn2)c1.[Ru+2].c1ccc(-c2ccnc3c2ccc2c(-c4ccccc4)ccnc23)cc1.c1ccc(-c2ccnc3c2ccc2c(-c4ccccc4)ccnc23)cc1` [[Ru(dip)2(bpy-NitroIm)]^2+], the “τ, luminescence lifetime” value is listed as 810 ± 10 ns in series [5] (air-equilibrated conditions) and 1.91 ± 0.01 µs in series [5] (deoxygenated conditions). Moreover, the “φ, quantum yield of luminescence” value in series [5] (air-equilibrated conditions) is reported as 0.0103 ± 0.0004; in series [5] (deoxygenated conditions), 0.0341 ± 0.0004. In addition, the IC50 in series [1] (medium with serum (2 %)) was found to be 18.8 ± 1.29 µM; in series [1] (medium without serum) it was 10.6 ± 1.05 µM; in series [2] (with serum (2%)), 10.4 ± 1.31 µM; in series [2] (without serum), 6.08 ± 0.7 µM.
“[Ru(dip)2(1,3-dicyclohexyl-1-[4-carbonyl-(4′-methyl-2,2′-bipyridyl)]-urea)]Cl2 [[Ru(dip)2(CH3bpy-DCU)]^2+]”: the “luminescence of cells (flow cytometry)” value in the series on 4T1 cells [6] was “highest luminescence”. The IC50 in series [1] (medium with serum (2 %)) was 9.01 ± 1.33 µM; in series [1] (medium without serum), 4.71 ± 0.18 µM; in series [2] (with serum (2%)), 5.84 ± 0.24 µM; in series [2] (without serum), 2.28 ± 0.61 µM. In addition, in the series with 4T1 cells [4], the “relative ruthenium accumulation in cells” value is “highest accumulation”. In addition, the “τ, luminescence lifetime” value in series [3] (air-equilibrated conditions) was 460 ± 10 ns; in series [3] (deoxygenated conditions), 1.85 ± 0.02 µs. In addition, the “φ, quantum yield of luminescence” value in series [3] (setting [7]) was 0.0044 ± 0.0002; in series [3] (deoxygenated conditions), 0.0049 ± 0.0002.
